# Entries after “also recorded” stand apart in the source; their conditions may differ.
# Tests used:
# [1] = test system: human pluripotent stem cells; experiment: HD-DoE #1: 8-factor experiment, gene expression after 3-day treatment with effectors; assay type: cell-based; conditions: 8-factor model
# Excerpt: (§1) This example utilizes a method of High-Dimensional Design of Experiments (HD-DoE), as previously described in Bukys et al. (2020) Iscience 23:101346. The method employs computerized design geometries to simultaneously test multiple process inputs and offers mathematical modeling of a deep effector/response space. The method allows for finding combinatorial signaling inputs that control a complex process, such as during cell differentiation. It allows testing of multiple plausible critical process parameters, as such parameters impact output responses, such as gene expression. Because gene expression provides hallmark features of the phenotype of, for example, a human cell, the method can be applied to identify, and understand, which signaling pathways control cell fate. In the current example, the HD-DOE method was applied with the intent to find conditions for induction of oligodendrocyte progenitor-expressed genes, directly from the pluripotent stem cell state.
# (§2) Specifically, to develop a novel method to generate oligodendrocytes, the impact of agonists and antagonists of multiple signaling pathways (herein called effectors) were tested on expression of two sets of 53 pre-selected genes after a 3-day treatment. These effectors are small molecules that are commonly used during stepwise differentiation of stem cells to specific fates. Choice of the effectors were based on current literature on neural induction in anterior ectoderm and differentiation of stem cells to oligodendrocytes.
# To test the effectors, experiments with at least 8 factors were designed that can assess the response of cells to 48 or more different combinations of effectors in a range of concentrations. To analyze the models, we focused on expression of genes expressed during early development of anterior neuroectoderm and oligodendrocytes including NKX2-2, OLIG2, OLIG1, and PDGFRA. The impact of each effector on gene expression level is defined by a parameter called factor contribution that is calculated for each effector during the modeling.
# This model tested 8 factors: PD0325901, MK2206, TTNPB, SC79, MHY1485, ZM336372, AGN193109 and AZD3147.
# [2] = test system: human pluripotent stem cells; experiment: HD-DoE #2: 13-factor experiment, differentiation toward anterior neuroectoderm (OTX2, FEZF2 expression); assay type: cell-based; conditions: for effect on expression of FEZF2 (dynamic profiling analysis) / impact on expression level of OTX2 (dynamic profiling analysis): 13-factor model; for contribution to expression of OTX2 (in words): 13-factor model of high expression of OTX2
# Excerpt: as §1, §2
# To further enhance the conditions for oligodendrocyte differentiation from pluripotency, we performed an additional HD-DoE experiment. We obtained additional gene regulatory models that were used for preparation of a differentiation protocol. The basis of this was a 13-factor HD-DoE experiment with focus on initiation of differentiation of cells toward anterior neuroectoderm. In this model, we focused on expression of FEZF2 and OTX2.
SMILES,"effect on expression of targeted oligodendrocyte genes (NKX2-2, OLIG2) [1]",contribution to expression of OTX2 (in words) [2],further results
O=[N+]([O-])c1ccc(Nc2nc(N3CCOCC3)nc(N3CCOCC3)n2)cc1 [MHY1485],significant positive effect,–,–
Oc1nc(-c2ccc(C(F)(F)F)cc2)nc2c1CSCC2 [XAV939],–,–,effect on expression of FEZF2 (dynamic profiling analysis) [2]: significant positive effects; impact on expression level of OTX2 (dynamic profiling analysis) [2]: no negative impact
Cc1ccc(NC(=O)c2cccc(N(C)C)c2)cc1NC(=O)c1ccc(O)cc1 [ZM336372],negatively impacting,–,–
Cc1c[nH]c(-c2cnc(NCCNc3ccc(C#N)cn3)nc2-c2ccc(Cl)cc2Cl)n1 [CHIR99021],–,positive contribution,–
C/C(=C\c1ccc(C(=O)O)cc1)c1ccc2c(c1)C(C)(C)CCC2(C)C [TTNPB],significant positive effect,–,–
O=C(NOC[C@H](O)CO)c1ccc(F)c(F)c1Nc1ccc(I)cc1F [PD0325901],negatively impacting; also recorded: negative effect,positive contribution,–
COc1ccc2c(c1)c(C1=C(c3c[nH]c4ccccc34)C(=O)NC1=O)cn2CCCN(C)C [Go6983],–,positive contribution,–
CCOC(=O)C1=C(N)Oc2ccc(Cl)cc2C1C(C#N)C(=O)OCC (centres unmarked) [SC79],significant positive effect,–,–
c1ccc2c(-c3cnn4cc(-c5ccc(N6CCNCC6)cc5)cnc34)ccnc2c1 [LDN193189],–,positive contribution,–
c1ccc2c(Oc3nc(Nc4ccc(N5CCOCC5)cc4)c4ncn(C5CCCCC5)c4n3)cccc2c1 [Purmorphamine],–,–,effect on expression of FEZF2 (dynamic profiling analysis) [2]: significant positive effects; impact on expression level of OTX2 (dynamic profiling analysis) [2]: no negative impact
NC1(c2ccc(-c3nc4ccn5c(=O)[nH]nc5c4cc3-c3ccccc3)cc2)CCC1 [MK2206],negative effect,–,–

# — US12385009B2, “Methods and compositions for generating oligodendrocyte progenitor cells” (Trailhead Biosystems Inc., priority 2021, dated 2025)
